# In patent US8952024B2, “Herbicidal pyrimidone derivatives” (E I du Pont de Nemours and Company, priority 2009, dated 2015):
# Assays:
# Assay in all cases: Test B pre-/postemergence plant response
# Type in all cases: in vivo
# [1] = test system: bermudagrass (Cynodon dactylon)
# In short: (§1)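 Steps: sow seed in loam–sand soil and spray preemergence, or grow plants in peat-based medium to 1–4 leaves (2–18 cm) and spray postemergence; formulation is non-phytotoxic solvent plus surfactant; hold in greenhouse 13–15 days; score visually vs controls, 0 = no effect, 100 = complete control.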
# [2] = test system: lambsquarters (Chenopodium album)
# In short: as §1
# [3] = test system: giant foxtail (Setaria faberii)
# In short: as §1
# [4] = test system: large crabgrass (Digitaria sanguinalis)
# In short: as §1
# [5] = test system: morningglory (Ipomoea coccinea)
# In short: as §1
# [6] = test system: Italian ryegrass (Lolium multiflorum)
# In short: as §1
# [7] = test system: Surinam grass (Brachiaria decumbens)
# In short: as §1
# corn (Zea mays) = test system: corn (Zea mays)
# In short: as §1
# [8] = test system: woolly cupgrass (Eriochloa villosa)
# In short: as §1
# [9] = test system: yellow nutsedge (Cyperus esculentus)
# In short: as §1
# [10] = test system: green foxtail (Setaria viridis)
# In short: as §1
# [11] = test system: blackgrass (Alopecurus myosuroides)
# In short: as §1
# [12] = test system: downy bromegrass (Bromus tectorum)
# In short: as §1
# [13] = 250 g ai/ha, Preemergence, 0 to 100 scale
# [14] = Postemergence, 62 g ai/ha, scale 0 (no effect) to 100 (complete control), 13 to 15 days
# [15] = Postemergence, 125 g ai/ha, visual rating after 13 to 15 days, scale 0 (no effect) to 100 (complete control)
# [16] = Postemergence, 250 g ai/ha, scale 0 to 100 (0 no effect, 100 complete control)
# [17] = Preemergence, 31 g ai/ha, scale 0 to 100 (0 no effect, 100 complete control)
# [18] = Preemergence, 62 g ai/ha, scale 0 to 100 (0 no effect, 100 complete control)
# [19] = Preemergence, 125 g ai/ha, scale 0 to 100, 0 no effect, 100 complete control
# [20] = 31 g ai/ha, postemergence, scale 0 to 100, 0 is no effect, 100 is complete control
smiles,measurement,setting,value
CCCCc1ncc(C(=O)C2=C(O)CCCC2=O)c(=O)n1-c1cccc(C)c1 [Compound 63],"Plant response rating, Bermudagrass",[1]; [13],98
same,"Plant response rating, Bermudagrass",[1]; [14],85
same,"Plant response rating, Bermudagrass",[1]; [15],85
same,"Plant response rating, Bermudagrass",[1]; [16],95
same,"Plant response rating, Bermudagrass",[1]; [17],75
same,"Plant response rating, Bermudagrass",[1]; [18],98
same,"Plant response rating, Bermudagrass",[1]; [19],98
same,"Plant response rating, Lambsquarters",[2]; [13],100
same,"Plant response rating, Lambsquarters",[2]; [14],95
same,"Plant response rating, Lambsquarters",[2]; [15],98
same,"Plant response rating, Lambsquarters",[2]; [16],98
same,"Plant response rating, Lambsquarters",[2]; [17],98
same,"Plant response rating, Lambsquarters",[2]; [18],98
same,"Plant response rating, Lambsquarters",[2]; [19],100
same,"Plant response rating, Foxtail, Giant",[3]; [20],60
same,"Plant response rating, Foxtail, Giant",[3]; [13],10
same,"Plant response rating, Foxtail, Giant",[3]; [14],65
same,"Plant response rating, Foxtail, Giant",[3]; [15],65
same,"Plant response rating, Foxtail, Giant",[3]; [16],80
same,"Plant response rating, Foxtail, Giant",[3]; [17],0
same,"Plant response rating, Foxtail, Giant",[3]; [18],0
same,"Plant response rating, Foxtail, Giant",[3]; [19],0
same,"Plant response rating, Crabgrass, Large",[4]; [20],70
same,"Plant response rating, Crabgrass, Large",[4]; [13],100
same,"Plant response rating, Crabgrass, Large",[4]; [14],75
same,"Plant response rating, Crabgrass, Large",[4]; [15],80
same,"Plant response rating, Crabgrass, Large",[4]; [16],90
same,"Plant response rating, Crabgrass, Large",[4]; [17],50
same,"Plant response rating, Crabgrass, Large",[4]; [18],85
same,"Plant response rating, Crabgrass, Large",[4]; [19],100
same,"Plant response rating, Morningglory",[5]; [14],70
same,"Plant response rating, Morningglory",[5]; [15],75
same,"Plant response rating, Morningglory",[5]; [16],75
same,"Plant response rating, Morningglory",[5]; [17],0
same,"Plant response rating, Morningglory",[5]; [18],0
same,"Plant response rating, Morningglory",[5]; [19],0
same,"Plant response rating, Ryegrass, Italian",[6]; [20],0
same,"Plant response rating, Ryegrass, Italian",[6]; [14],0
same,"Plant response rating, Ryegrass, Italian",[6]; [15],0
same,"Plant response rating, Ryegrass, Italian",[6]; [16],10
same,"Plant response rating, Ryegrass, Italian",[6]; [17],0
same,"Plant response rating, Ryegrass, Italian",[6]; [18],0
same,"Plant response rating, Ryegrass, Italian",[6]; [19],0
same,"Plant response rating, Surinam Grass",[7]; [20],10
same,"Plant response rating, Surinam Grass",[7]; [14],25
same,"Plant response rating, Surinam Grass",[7]; [15],35
same,"Plant response rating, Surinam Grass",[7]; [16],75
same,"Plant response rating, Surinam Grass",[7]; [17],0
same,"Plant response rating, Surinam Grass",[7]; [18],0
same,"Plant response rating, Surinam Grass",[7]; [19],55
same,"Plant response rating, Corn",corn (Zea mays); [13],0
same,"Plant response rating, Corn",corn (Zea mays); [14],20
same,"Plant response rating, Corn",corn (Zea mays); [15],25
same,"Plant response rating, Corn",corn (Zea mays); [16],45
same,"Plant response rating, Corn",corn (Zea mays); [17],0
same,"Plant response rating, Corn",corn (Zea mays); [18],0
same,"Plant response rating, Corn",corn (Zea mays); [19],0
same,"Plant response rating, Cupgrass, Woolly",[8]; [20],50
same,"Plant response rating, Cupgrass, Woolly",[8]; [13],10
same,"Plant response rating, Cupgrass, Woolly",[8]; [14],60
same,"Plant response rating, Cupgrass, Woolly",[8]; [15],65
same,"Plant response rating, Cupgrass, Woolly",[8]; [16],65
same,"Plant response rating, Cupgrass, Woolly",[8]; [17],0
same,"Plant response rating, Cupgrass, Woolly",[8]; [18],0
same,"Plant response rating, Cupgrass, Woolly",[8]; [19],0
same,"Plant response rating, Nutsedge, Yellow",[9]; [20],20
same,"Plant response rating, Nutsedge, Yellow",[9]; [14],20
same,"Plant response rating, Nutsedge, Yellow",[9]; [15],50
same,"Plant response rating, Nutsedge, Yellow",[9]; [16],60
same,"Plant response rating, Nutsedge, Yellow",[9]; [17],10
same,"Plant response rating, Nutsedge, Yellow",[9]; [18],15
same,"Plant response rating, Nutsedge, Yellow",[9]; [19],25
same,"Plant response rating, Foxtail, Green",[10]; [20],60
same,"Plant response rating, Foxtail, Green",[10]; [13],30
same,"Plant response rating, Foxtail, Green",[10]; [14],70
same,"Plant response rating, Foxtail, Green",[10]; [15],70
same,"Plant response rating, Foxtail, Green",[10]; [16],90
same,"Plant response rating, Foxtail, Green",[10]; [17],0
same,"Plant response rating, Blackgrass",[11]; [20],30
same,"Plant response rating, Blackgrass",[11]; [13],40
same,"Plant response rating, Blackgrass",[11]; [14],35
same,"Plant response rating, Blackgrass",[11]; [15],35
same,"Plant response rating, Blackgrass",[11]; [16],50
same,"Plant response rating, Blackgrass",[11]; [17],0
same,"Plant response rating, Blackgrass",[11]; [18],0
same,"Plant response rating, Blackgrass",[11]; [19],5
same,"Plant response rating, Bromegrass, Downy",[12]; [20],10
same,"Plant response rating, Bromegrass, Downy",[12]; [13],0
same,"Plant response rating, Bromegrass, Downy",[12]; [14],20
same,"Plant response rating, Bromegrass, Downy",[12]; [15],20
same,"Plant response rating, Bromegrass, Downy",[12]; [16],40
same,"Plant response rating, Bromegrass, Downy",[12]; [17],0
same,"Plant response rating, Bromegrass, Downy",[12]; [18],0
same,"Plant response rating, Bromegrass, Downy",[12]; [19],0
